Active and inactive are the calls of the source.
Experiments:
Type in all cases: functional
[1] = target: Calcium/calmodulin-dependent protein kinase type II subunit alpha (Homo sapiens, UniProt Q9UQM7); assay: Navigating the Kinome. Panel member name: CAMK2A
[2] = target: T1, Receptor-type tyrosine-protein kinase FLT3 (Homo sapiens, UniProt P36888);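 also: FLT3 was tested as one member of a kinome-wide kinase panel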
T1 sequence (P36888 whole entry): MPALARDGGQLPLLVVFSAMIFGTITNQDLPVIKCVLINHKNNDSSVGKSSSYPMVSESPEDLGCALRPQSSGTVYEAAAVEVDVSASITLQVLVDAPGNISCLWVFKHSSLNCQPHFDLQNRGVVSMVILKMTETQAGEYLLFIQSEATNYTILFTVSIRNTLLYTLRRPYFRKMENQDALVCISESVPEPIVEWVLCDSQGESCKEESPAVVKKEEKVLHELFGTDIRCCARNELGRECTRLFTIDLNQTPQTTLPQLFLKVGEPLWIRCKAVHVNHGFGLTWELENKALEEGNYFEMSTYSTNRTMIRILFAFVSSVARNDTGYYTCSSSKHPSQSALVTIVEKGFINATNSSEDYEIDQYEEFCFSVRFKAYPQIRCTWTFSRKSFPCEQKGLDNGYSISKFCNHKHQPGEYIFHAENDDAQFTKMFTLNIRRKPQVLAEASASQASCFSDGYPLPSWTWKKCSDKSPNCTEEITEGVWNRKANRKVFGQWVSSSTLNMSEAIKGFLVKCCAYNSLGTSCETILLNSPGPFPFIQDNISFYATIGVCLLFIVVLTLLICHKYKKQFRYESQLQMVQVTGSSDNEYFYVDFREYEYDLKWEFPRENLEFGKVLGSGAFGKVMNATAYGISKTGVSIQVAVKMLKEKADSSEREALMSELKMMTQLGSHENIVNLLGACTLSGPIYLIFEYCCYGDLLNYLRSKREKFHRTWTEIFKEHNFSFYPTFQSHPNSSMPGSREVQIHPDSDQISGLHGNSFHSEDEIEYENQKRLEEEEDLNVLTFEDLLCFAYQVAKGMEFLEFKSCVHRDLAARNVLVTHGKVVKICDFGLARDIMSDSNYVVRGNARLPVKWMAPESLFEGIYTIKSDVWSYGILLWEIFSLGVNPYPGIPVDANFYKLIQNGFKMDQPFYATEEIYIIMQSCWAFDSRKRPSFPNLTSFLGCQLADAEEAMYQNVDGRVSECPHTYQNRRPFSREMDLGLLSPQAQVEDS

[3] = target: T2, Inhibitor of nuclear factor kappa-B kinase subunit epsilon (Homo sapiens, UniProt Q14164); assay: Navigating the Kinome. Panel member name: IKBKE
T2 sequence (Q14164 whole entry): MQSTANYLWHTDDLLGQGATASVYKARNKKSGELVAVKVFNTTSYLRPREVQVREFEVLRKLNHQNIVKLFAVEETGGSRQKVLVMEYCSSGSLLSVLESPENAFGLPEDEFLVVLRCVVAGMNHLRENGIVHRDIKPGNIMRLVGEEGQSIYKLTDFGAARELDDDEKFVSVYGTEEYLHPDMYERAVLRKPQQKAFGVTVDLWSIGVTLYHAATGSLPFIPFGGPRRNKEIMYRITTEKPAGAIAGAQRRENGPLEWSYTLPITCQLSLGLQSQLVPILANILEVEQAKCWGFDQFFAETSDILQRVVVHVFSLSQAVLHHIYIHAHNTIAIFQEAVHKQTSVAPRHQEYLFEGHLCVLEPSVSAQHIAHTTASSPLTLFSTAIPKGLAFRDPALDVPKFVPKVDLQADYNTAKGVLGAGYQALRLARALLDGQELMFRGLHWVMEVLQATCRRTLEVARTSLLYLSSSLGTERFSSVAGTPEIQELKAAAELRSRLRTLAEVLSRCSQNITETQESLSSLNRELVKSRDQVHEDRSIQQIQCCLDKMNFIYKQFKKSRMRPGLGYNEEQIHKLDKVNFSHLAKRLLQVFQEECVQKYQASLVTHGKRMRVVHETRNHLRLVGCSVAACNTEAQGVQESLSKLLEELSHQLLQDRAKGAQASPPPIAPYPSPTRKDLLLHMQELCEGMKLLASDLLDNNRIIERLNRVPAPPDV

Aurora kinase A = target: T3, Aurora kinase A (Homo sapiens, UniProt O14965);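 also: value from the Navigating the Kinome kinase panel profiling, panel entry STK6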
T3 sequence (O14965 whole entry): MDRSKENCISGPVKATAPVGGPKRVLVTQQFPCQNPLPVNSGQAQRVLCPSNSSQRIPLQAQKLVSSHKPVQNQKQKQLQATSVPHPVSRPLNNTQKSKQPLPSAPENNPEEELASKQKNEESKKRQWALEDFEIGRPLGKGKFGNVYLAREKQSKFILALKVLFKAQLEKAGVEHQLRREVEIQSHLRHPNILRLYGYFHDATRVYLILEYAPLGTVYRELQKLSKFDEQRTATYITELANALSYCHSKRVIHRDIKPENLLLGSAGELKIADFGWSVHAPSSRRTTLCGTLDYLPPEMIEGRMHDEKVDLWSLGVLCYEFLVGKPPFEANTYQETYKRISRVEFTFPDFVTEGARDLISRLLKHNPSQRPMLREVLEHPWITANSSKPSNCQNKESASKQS

[4] = target: Tyrosine-protein kinase BTK (Homo sapiens, UniProt Q06187)
[5] = target: Platelet-derived growth factor receptor alpha (Homo sapiens, UniProt P16234); assay: Navigating the Kinome. Panel member name: PDGFRA
[6] = target: Cyclin-dependent kinase 5 (Homo sapiens, UniProt Q00535);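 also: CDK5 measured as one member of a kinase profiling panel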
[7] = target: Glycogen synthase kinase-3 beta (Homo sapiens, UniProt P49841);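 also: value comes from a broad kinome profiling panel, with GSK3B as the panel member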
Activin receptor type-1 = target: T4, Activin receptor type-1 (Homo sapiens, UniProt Q04771); assay: Navigating the Kinome. Panel member name: ACVR1
T4 sequence (Q04771 whole entry): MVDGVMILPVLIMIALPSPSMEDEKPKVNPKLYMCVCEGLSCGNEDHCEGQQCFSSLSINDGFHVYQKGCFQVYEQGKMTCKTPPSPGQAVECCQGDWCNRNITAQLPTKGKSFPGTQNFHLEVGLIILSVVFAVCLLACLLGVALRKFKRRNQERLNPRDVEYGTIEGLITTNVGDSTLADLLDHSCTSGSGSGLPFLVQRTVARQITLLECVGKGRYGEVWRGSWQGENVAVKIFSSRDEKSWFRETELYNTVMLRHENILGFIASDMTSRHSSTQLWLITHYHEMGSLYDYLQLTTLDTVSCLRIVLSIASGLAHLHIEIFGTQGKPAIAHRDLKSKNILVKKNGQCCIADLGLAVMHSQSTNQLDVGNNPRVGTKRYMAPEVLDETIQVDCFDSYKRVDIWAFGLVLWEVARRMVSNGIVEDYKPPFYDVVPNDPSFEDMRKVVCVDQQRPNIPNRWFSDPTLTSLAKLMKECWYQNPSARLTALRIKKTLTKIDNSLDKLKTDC

[8] = target: cAMP-dependent protein kinase catalytic subunit alpha (Homo sapiens, UniProt P17612)

Chain of Tyrosine-protein kinase BTK (Q06187 whole entry): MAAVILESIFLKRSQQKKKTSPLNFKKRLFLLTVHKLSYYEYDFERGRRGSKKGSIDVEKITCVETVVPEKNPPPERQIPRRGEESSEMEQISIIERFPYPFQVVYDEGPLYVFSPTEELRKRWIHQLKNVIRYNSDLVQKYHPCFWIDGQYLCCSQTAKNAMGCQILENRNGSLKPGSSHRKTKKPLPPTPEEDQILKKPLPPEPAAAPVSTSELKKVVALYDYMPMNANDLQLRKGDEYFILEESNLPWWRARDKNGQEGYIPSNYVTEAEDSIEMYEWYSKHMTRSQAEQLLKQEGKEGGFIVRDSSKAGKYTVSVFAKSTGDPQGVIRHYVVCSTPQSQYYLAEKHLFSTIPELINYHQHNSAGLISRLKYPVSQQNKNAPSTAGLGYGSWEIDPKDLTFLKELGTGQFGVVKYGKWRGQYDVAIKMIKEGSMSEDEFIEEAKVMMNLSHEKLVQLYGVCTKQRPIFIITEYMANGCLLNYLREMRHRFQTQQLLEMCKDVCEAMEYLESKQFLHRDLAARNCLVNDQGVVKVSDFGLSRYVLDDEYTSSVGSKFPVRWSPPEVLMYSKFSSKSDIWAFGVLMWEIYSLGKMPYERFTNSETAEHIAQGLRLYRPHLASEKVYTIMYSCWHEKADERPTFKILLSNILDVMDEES
Chain of Calcium/calmodulin-dependent protein kinase type II subunit alpha (Q9UQM7 whole entry): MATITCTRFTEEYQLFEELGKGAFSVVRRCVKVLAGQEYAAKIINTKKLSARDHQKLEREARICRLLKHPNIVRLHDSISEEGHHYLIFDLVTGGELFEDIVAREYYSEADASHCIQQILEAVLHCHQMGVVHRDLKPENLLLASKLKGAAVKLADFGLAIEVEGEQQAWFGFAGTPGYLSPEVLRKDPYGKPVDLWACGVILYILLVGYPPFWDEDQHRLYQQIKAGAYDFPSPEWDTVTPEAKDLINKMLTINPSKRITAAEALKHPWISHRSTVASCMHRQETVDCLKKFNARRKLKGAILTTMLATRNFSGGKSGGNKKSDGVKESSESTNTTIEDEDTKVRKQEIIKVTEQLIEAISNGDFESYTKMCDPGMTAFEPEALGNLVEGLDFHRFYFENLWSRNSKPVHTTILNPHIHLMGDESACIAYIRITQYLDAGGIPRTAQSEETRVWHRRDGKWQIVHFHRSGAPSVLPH
Chain of Cyclin-dependent kinase 5 (Q00535 whole entry): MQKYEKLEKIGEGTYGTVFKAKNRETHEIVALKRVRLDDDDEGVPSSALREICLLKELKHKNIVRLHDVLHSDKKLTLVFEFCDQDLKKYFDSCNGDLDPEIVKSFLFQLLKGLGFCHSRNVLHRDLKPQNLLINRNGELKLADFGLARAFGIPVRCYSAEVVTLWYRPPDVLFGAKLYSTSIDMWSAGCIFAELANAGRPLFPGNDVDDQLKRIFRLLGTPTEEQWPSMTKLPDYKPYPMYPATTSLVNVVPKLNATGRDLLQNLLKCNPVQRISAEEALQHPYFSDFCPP
Chain of Platelet-derived growth factor receptor alpha (P16234 whole entry): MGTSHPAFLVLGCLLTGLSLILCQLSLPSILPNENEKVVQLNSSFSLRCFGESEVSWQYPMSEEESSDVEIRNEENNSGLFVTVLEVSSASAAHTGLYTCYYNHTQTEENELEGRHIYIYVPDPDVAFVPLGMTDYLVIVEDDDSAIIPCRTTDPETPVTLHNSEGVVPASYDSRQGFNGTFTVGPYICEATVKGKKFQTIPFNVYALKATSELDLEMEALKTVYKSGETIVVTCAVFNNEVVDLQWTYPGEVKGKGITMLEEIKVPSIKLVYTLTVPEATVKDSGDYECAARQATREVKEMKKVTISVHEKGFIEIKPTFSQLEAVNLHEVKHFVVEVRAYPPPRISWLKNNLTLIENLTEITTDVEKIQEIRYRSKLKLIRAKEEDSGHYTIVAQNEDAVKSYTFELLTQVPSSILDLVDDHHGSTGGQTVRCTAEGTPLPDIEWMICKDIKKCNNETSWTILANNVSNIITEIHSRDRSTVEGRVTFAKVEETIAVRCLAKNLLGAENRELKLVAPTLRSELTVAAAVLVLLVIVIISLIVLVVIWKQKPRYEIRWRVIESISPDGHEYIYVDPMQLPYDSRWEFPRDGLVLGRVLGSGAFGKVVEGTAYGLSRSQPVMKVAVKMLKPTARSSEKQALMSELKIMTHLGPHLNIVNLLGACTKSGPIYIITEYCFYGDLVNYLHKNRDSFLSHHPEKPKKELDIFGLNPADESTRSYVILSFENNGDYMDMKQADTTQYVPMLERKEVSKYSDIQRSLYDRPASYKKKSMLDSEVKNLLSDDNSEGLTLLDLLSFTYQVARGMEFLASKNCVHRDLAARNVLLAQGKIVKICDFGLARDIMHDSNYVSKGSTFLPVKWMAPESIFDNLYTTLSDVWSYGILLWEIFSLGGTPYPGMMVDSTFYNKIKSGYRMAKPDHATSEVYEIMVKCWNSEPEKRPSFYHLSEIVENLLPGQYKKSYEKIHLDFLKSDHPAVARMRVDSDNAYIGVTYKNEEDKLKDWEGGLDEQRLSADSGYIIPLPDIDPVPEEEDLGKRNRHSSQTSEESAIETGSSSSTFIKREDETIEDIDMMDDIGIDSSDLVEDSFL
Chain of Glycogen synthase kinase-3 beta (P49841 whole entry): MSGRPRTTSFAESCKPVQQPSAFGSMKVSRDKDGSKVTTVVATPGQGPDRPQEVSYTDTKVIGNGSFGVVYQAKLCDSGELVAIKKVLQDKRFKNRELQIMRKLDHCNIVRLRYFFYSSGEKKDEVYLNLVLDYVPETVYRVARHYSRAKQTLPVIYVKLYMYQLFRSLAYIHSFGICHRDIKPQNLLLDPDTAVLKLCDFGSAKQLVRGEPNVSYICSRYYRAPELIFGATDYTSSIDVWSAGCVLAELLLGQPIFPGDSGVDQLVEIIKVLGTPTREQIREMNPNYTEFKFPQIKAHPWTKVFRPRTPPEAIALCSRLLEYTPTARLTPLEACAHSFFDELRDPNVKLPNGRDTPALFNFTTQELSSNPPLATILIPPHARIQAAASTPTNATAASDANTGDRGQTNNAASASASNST

O=C(Nc1cccc(C(F)(F)F)n1)Nc1ccnc2cc(OC(F)F)ccc12
Ki [1]: > 6.31 µM (inactive)
Ki [2]: > 3.16 µM (inactive)
Ki [3]: > 3.16 µM (inactive)
Ki (Aurora kinase A): > 1.58 µM (inactive)
Ki [4]: > 6.31 µM (inactive)
Ki [5]: > 2.51 µM (inactive)
Ki [6]: > 3.16 µM (inactive)

O=C(Nc1cccc(C(F)(F)F)n1)Nc1ccnc2cc(Cl)ccc12
Ki [1]: > 7.94 µM (inactive)
Ki [7]: 0.00794 µM (active)
Ki (Activin receptor type-1): 1 µM (active)
Ki [2]: > 3.16 µM (inactive)
Ki [3]: > 3.16 µM (inactive)
Ki (Aurora kinase A): > 1.58 µM (inactive)
Ki [4]: > 6.31 µM (inactive)
Ki [5]: > 2.51 µM (inactive)
Ki [6]: > 3.16 µM (inactive)
Ki [8]: > 1.26 µM (inactive)

CCC1CC(NS(=O)(=O)C2CC2)CC1c1ncc2cnc3[nH]ccc3n12 (centres undefined)
Ki [1]: 2.51 µM (active)
Ki [7]: > 3.98 µM (inactive)
Ki (Activin receptor type-1): > 3.98 µM (inactive)
Ki [2]: > 3.16 µM (inactive)
Ki [3]: > 3.16 µM (inactive)
Ki (Aurora kinase A): 1.26 µM (active)
Ki [4]: > 6.31 µM (inactive)
Ki [5]: > 2.51 µM (inactive)
Ki [6]: > 3.16 µM (inactive)
Ki [8]: 0.2 µM (active)

O=c1[nH]c2cc(Br)cnc2[nH]1
Ki [7]: 63.1 µM (active)
Ki (Activin receptor type-1): 25.1 µM (active)
Ki [3]: 39.8 µM (active)
Ki (Aurora kinase A): 10 µM (active)
Ki [5]: 5.01 µM (active)
Ki [6]: 0.0501 µM (active)
Ki [8]: > 50.1 µM (inactive)
